According to patent publication US8691799B2, “Materials and methods for treatment of cancer and identification of anti-cancer compounds” (priority 2001, dated 2014):

Columns and labels:
Type in all cases: biochemical
JAK1 = test: JAK kinase autophosphorylation assay on immunoprecipitates (JAK1); settings: immunoprecipitates from MDA-MB-468 or v-Src/NIH 3T3 cells; AG490 100 μM, PD180970 2 μM
Method: (§1) JAK Kinase Assays. A549, MDA-MB-468, and v-Src transformed NIH 3T3 cells were harvested, washed three times in PBS-V (10 mM sodium phosphate, pH 7.4, 137 mM NaCl, 1 mM sodium orthovanadate) then lysed for 30 min on ice in JAK kinase lysis buffer (25 mM Hepes, pH 7.4, 0.1% Triton-X-100, 0.5 mM DTT, 1 mM sodium orthovanadate, 1 mM PMSF, 10 μg/ml aprotinin, 10 μg/ml leupeptin). Samples were spun at high speed to clear, and 800-1000 μg of protein was immunoprecipitated per treatment condition with 50 ng of either JAK1 or JAK2 antibody (Santa Cruz Biotechnology) rocking overnight at 4° C. 25 μl of protein A/G PLUS agarose then was added and rocking continued for 1 hr at 4° C. Samples were spun to collect agarose pellet, and pellet washed twice in wash buffer (50 mM Hepes, pH 7.4, 0.1% Triton-X-100, 0.5 mM DTT, 150 mM NaCl) and once in phosphorylation buffer (50 mM Hepes, pH 7.4, 0.1% Triton-X-100, 0.5 mM DTI, 6.25 mM manganese chloride, 100 mM NaCl). Kinase reactions were performed at 30° C. for 15 min in a final volume of 100 μl of phosphorylation buffer. Samples were pretreated with DMSO control, JSI-124, and control compounds (AG490, 100 μM, and […], 2 μM) before addition of 20 μCi/sample y-[^32P]ATP. Reaction was halted using stop buffer (wash buffer plus 10 mM EDTA), samples spun to collect pellet, then pellet washed once with stop buffer and twice with wash buffer. Samples were then placed in 2×SDS-PAGE sample buffer, boiled at 100° C., and run on 8% SDS-PAGE gels to separate proteins. Autophosphorylation results were visualized by autoradiography.

JAK2 = biological target: T1, JAK2 (Homo sapiens, UniProt O60674); test: JAK kinase autophosphorylation assay on immunoprecipitates (JAK2); settings: immunoprecipitates from A549, MDA-MB-468 or v-Src/NIH 3T3 cells; AG490 100 μM, PD180970 2 μM
T1 construct: Src, JAK1, and JAK2 were immunoprecipitated from either A549, MDA-MB-468, or v-Src/NIH 3T3 cells; endogenous in cells; host or cells: A549, MDA-MB-468, v-Src transformed NIH 3T3 (immunoprecipitates)
Method: as §1

Src = Src kinase autophosphorylation assay on immunoprecipitates; settings: immunoprecipitates from A549, MDA-MB-468 or v-Src/NIH 3T3 cells
Method: Src Kinase Assay. A549, MDA-MB-468, and v-Src cells were harvested and lysed for 30 min on ice in RIPA150 buffer (10 mM Tris, pH 7.5, 150 mM NaCl, 10% glycerol, 5 mM EDTA, 1% Triton-X-100, 0.1% SDS, 100 μM sodium orthovanadate, 10 μg/ml aprotinin, 10 μg/ml leupeptin, 1 μg/ml antipain). Samples were spun at high speed to clear, then 1000 μg of protein were immunoprecipitated per treatment condition with 2 μg v-Src antibody (Ab-1, Oncogene Research Products, San Diego, Calif.) rocking overnight at 4° C. 25 μl of protein A/G PLUS agarose then was added and rocking continued for 4 hr at 4° C. Samples were spun to collect agarose pellet, and pellet washed three times in RIPA150 buffer, twice in RIPA10 buffer (10 mM Tris, pH 7.5, 10 mM NaCl, 10% glycerol, 5 mM EDTA, 1% Triton-X-100, 0.1% SDS, 100 μM sodium orthovanadate 10 μg/ml aprotinin, 10 μg/ml leupeptin, 1 μg/ml antipain), and three times in 40 mM Tris, pH 7.4. Pellet was then resuspended in 30 μl kinase reaction buffer (20 mM Tris, pH 7.4, 5 mM MgCl2) containing 10 μCi γ-[^32P]ATP. Inhibitors were preincubated for several minutes before the addition of the ATP. Kinase reactions were carried out at room temperature for 15 min. Reaction was stopped with the addition of 2×SDS-PAGE sample buffer. Samples were boiled and run on 10% SDS-PAGE gels. Autophosphorylation results were visualized by autoradiography.

T1 sequence (O60674 whole entry): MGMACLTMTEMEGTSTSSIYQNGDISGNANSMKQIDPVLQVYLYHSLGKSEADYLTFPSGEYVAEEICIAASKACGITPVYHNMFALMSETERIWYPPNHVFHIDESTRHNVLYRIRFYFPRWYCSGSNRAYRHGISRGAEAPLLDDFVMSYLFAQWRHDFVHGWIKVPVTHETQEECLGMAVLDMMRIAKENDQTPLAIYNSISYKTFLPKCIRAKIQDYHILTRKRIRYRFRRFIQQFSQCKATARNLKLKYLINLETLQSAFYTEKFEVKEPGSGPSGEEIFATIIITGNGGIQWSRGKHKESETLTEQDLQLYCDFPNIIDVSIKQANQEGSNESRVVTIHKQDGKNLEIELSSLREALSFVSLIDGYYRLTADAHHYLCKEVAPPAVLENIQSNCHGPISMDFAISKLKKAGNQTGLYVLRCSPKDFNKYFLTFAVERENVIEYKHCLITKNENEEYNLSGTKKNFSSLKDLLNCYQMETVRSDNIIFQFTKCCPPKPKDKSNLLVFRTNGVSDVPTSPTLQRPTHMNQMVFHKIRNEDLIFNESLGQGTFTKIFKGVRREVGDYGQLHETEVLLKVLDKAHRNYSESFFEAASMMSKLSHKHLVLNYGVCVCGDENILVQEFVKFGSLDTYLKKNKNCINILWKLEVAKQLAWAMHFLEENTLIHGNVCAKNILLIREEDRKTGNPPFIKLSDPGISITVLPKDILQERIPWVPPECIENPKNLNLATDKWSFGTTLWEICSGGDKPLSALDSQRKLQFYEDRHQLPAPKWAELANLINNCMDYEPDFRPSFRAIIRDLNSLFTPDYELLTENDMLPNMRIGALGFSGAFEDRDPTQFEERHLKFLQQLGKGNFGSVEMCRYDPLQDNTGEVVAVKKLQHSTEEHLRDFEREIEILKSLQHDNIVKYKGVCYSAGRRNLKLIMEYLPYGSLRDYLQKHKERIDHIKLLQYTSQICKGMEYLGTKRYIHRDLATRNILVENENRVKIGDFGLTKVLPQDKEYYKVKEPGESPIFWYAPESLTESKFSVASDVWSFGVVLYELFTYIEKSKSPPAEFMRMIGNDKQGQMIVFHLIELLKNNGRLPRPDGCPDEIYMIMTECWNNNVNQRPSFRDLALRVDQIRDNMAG

Compound	JAK1 kinase activity (autophosphorylation) in vitro (JAK1)	JAK2 kinase activity (autophosphorylation) in vitro (JAK2)	Src kinase activity (autophosphorylation) in vitro (Src)
N#C/C(=C/c1ccc(O)c(O)c1)C(=O)NCc1ccccc1 [AG490]	inhibited JAK1 and JAK2	inhibited JAK1 and JAK2	not Src kinase activities
Cc1cc(Nc2ncc3cc(-c4c(Cl)cccc4Cl)c(=O)n(C)c3n2)ccc1F [PD180970]	not JAK1 or JAK2 activities	not JAK1 or JAK2 activities	inhibits Src
